The source of these data is publication PMC3853024, “Aromatase inhibitor treatment with an intravaginal device and its effect on pre-ovulatory ovarian follicles in a bovine model” (Reproductive Biology and Endocrinology : RB&E, 2013).

Common to all, as to assay type: in vivo, cattle (Hereford-cross beef heifers)
The test system of one assay is plasma estradiol. Description: Plasma estradiol concentration (radioimmunoassay) in treated heifers. The protocol: (§1) Heifers in which a CL was detected were given two luteolytic doses of PGF (12 h apart) and monitored by ultrasonography for ovulation. Five to eight days later, the two largest ovarian follicles were ablated by transvaginal ultrasound-guided follicular aspiration to synchronize follicular wave emergence which was expected to occur 1 to 1.5 days later. Prostaglandin (500 μg cloprostenol, Estrumate, Schering-Plough Animal Health, Pointe-Claire, QC, Canada) was given intramuscularly at 60 and 72 h after follicular ablation to induce regression of the CL and shift from a non-ovulatory to an ovulatory follicular wave. […] Devices were inserted on Day 1 and were kept in place until Day 7 or until ovulation was detected, which ever occurred first. […]
Plasma concentrations of estradiol were determined using a commercial radioimmunoassay kit (Double Antibody Estradiol; Diagnostic Products Corp., Los Angeles, CA, USA). […]
(§2) Statistical analyses were done using the Statistical Analysis System software package (SAS Learning Edition 9.1, 2006; SAS Institute Inc., Cary, NC, USA). Time-series data (hormone concentrations, follicle and CL diameter profiles) were analyzed by repeated measures using the PROC MIXED procedure. […]

Assay [1] relates to pre-ovulatory ovarian follicles. Description: Ovarian ultrasonography in heifers treated with a letrozole-containing intravaginal device. The conditions noted are these: for Device placement to ovulation: inserted Day 1, n=15, mean±SEM. The protocol:
Hereford-cross beef heifers (n=30), 15 to 20 months of age and weighing between 235 and 405 kg (average 336 kg), were chosen from a herd of 51 heifers maintained in outdoor pens at the University of Saskatchewan Goodale Research Farm (52° North and 106° West). Heifers were fed alfalfa/grass hay and concentrate to gain approximately 1.3 Kg per day and had water ad libitum during the experimental period from October to December. Heifers were initially examined by transrectal ultrasonography (MyLab5 VET, Canadian Veterinary Imaging, Georgetown, Ontario Canada) to detect the presence of a CL (i.e., confirm post-pubertal status; [18]. Animal procedures were performed in accordance with the Canadian Council on Animal Care and were approved by University of Saskatchewan Protocol Review Committee.
Heifers in which a CL was detected were given two luteolytic doses of PGF (12 h apart) and monitored by ultrasonography for ovulation. Five to eight days later, the two largest ovarian follicles were ablated by transvaginal ultrasound-guided follicular aspiration to synchronize follicular wave emergence which was expected to occur 1 to 1.5 days later. Prostaglandin (500 μg cloprostenol, Estrumate, Schering-Plough Animal Health, Pointe-Claire, QC, Canada) was given intramuscularly at 60 and 72 h after follicular ablation to induce regression of the CL and shift from a non-ovulatory to an ovulatory follicular wave. At the time of follicular wave emergence (Day 0; i.e., 1.5 days after follicle ablation), heifers were assigned randomly to two groups and given an intravaginal device containing 1 g of letrozole (letrozole group, n=15) or a placebo (letrozole-free) intravaginal device (control group, n=15). Devices were inserted on Day 1 and were kept in place until Day 7 or until ovulation was detected, which ever occurred first.
Intravaginal devices were prepared using a Cue-Mate spine (Bioniche Animal Health, Bellville, ON, Canada) assembled with two blank (progesterone-free) silicone pods that were coated with a gel-based vehicle containing letrozole or vehicle only (control). The vehicle contained the following (all ingredients % w/w): letrozole 10%, gelatin 20% (Gelatin type B, Fisher Scientific, Pittsburgh, PA, USA), polymer 65% (prepared by mixing distilled water 68%, Poloxamer 188 12% and Poloxamer 407 20%, both from Spectrum Chemical, New Brunswick, NJ, USA) and distilled water 5%.
The observations from ultrasound examinations were recorded on a sketch sheet in which each ovary and its structures (CL and follicles ≥ 4 mm in diameter) were represented by size and location. Ovulation was defined as the disappearance of any follicle ≥8 mm between two consecutive daily examinations and was confirmed by the subsequent development of a CL [18]. Follicular wave emergence was defined as occurring 1.5 days after follicular ablation. The dominant follicle of a wave was defined as the largest antral follicle of that wave.
Statistical analyses were done using the Statistical Analysis System software package (SAS Learning Edition 9.1, 2006; SAS Institute Inc., Cary, NC, USA). Time-series data (hormone concentrations, follicle and CL diameter profiles) were analyzed by repeated measures using the PROC MIXED procedure. The main effects were treatment (letrozole and control), time, and their interactions (noted in figures as treatment, day and treat*day, respectively). Single-point measurements (dominant follicle diameter at device placement, maximum diameter of extant dominant follicle, intervals from ablation to wave emergence, and from device placement to ovulation) were analyzed by t-tests. Individual time point comparisons between treatment groups were performed using least significant difference test. Significance was defined as P ≤ 0.05.

The next assay has as its system plasma LH. Nature of the assay: Plasma LH concentration (radioimmunoassay) in treated heifers. Conditions: n=15, P=0.61. The method, then:
as §1
Plasma LH concentrations were determined in duplicate using a double-antibody radioimmunoassay (NIDDK-bLH4). […] All samples were analyzed in a single assay; the intra-assay coefficient of variation was 11.4% for low reference samples (mean, 0.9 ng/mL) and 12.2% for high reference samples (mean, 2.1 ng/mL).
as §2

The test system of the next assay is plasma progesterone. Nature of the assay: Plasma progesterone concentration (radioimmunoassay) after post-treatment ovulation. The conditions noted are these: first 12 days post-ovulation, n=15, P=0.01. The method, then: as §1
Plasma progesterone concentrations were determined in duplicate using a commercial solid-phase radioimmunoassay kit (Coat-A-Count; Diagnostic Products Corporation, Los Angeles, CA, USA). […] All samples were analyzed in a single assay; the intra-assay coefficients of variation were 9.7% and 5.8 % for low- (mean, 1.7 ng/mL) and high-reference samples (mean, 18.7 ng/mL), respectively. […]

`N#Cc1ccc(C(c2ccc(C#N)cc2)n2cncn2)cc1` [Letrozole]: in the assay on plasma estradiol (n=15), the “Delay of preovulatory rise in estradiol versus control” value is given as 24 h. In addition, the “Plasma estradiol concentrations versus control” value with plasma estradiol (n=15, P=0.04) is given as “lower”. The “Dominant follicle diameter at device placement” value in assay [1] (Day 1, at device insertion (baseline), n=15, mean±SEM) was found to be 4.2±0.46 mm. In addition, the “Corpus luteum diameter profile versus control” value in assay [1] (after post-treatment ovulation, n=15, P=0.82) is recorded as “not different”. Also, in assay [1] (all heifers, regardless of treatment), the Number of ovulations entry is “Single ovulation”. In addition, the “Day-to-day diameter profile of the dominant follicle versus control” value in assay [1] (during treatment, n=15, P=0.05) is on record as “larger”. Moreover, the “Device placement to ovulation” value stood at 6.1 ± 0.25 days in assay [1] (intravaginal device containing 1 g letrozole) and 6.1 ± 0.25 days in assay [1] (intravaginal device containing 1 g letrozole, listed as letrozole). Besides, the “Delay of ovulation versus control” value in assay [1] (intravaginal device containing 1 g letrozole, n=15) was 24 h. Also, the “Max. diameter of extant dominant follicle” value is recorded as 14.6±0.51 mm in assay [1] (intravaginal device containing 1 g letrozole, n=15, mean±SEM) and 14.6+/-0.51 mm in assay [1] (intravaginal device containing 1 g letrozole, n=15, mean±SEM, listed as letrozole). In addition, in the assay on plasma LH, the “Mean plasma LH concentrations versus control” value is “did not differ”. In the assay with plasma progesterone, the “Plasma progesterone concentrations versus control” value is listed as “higher”.
